The source made the active and inactive calls. No cut-off for these calls is given here.
Tests used:
[1] = Cmax in Sprague-Dawley rat at 100 mg/kg, ip measured up to 24 hrs by LC-MS analysis; type: ADME, organism-based; design: route intraperitoneal, dose 100 mg/kg, time <=24; settings: in vivo
[2] = Acute toxicity in ip dosed Kunming mouse assessed as lethal dose measured after 14 days; type: organism-based; settings: in vivo, time 14 day
U-87 MG [3] = experiment: Induction of morphological changes in human U-87 MG cells assessed as membrane blebbing at 3.3 uM incubated for 72 hrs by Giemsa staining based light microscopic method; type: functional, cell-based; settings: U-87MG ATCC
C6 [4] = experiment: Antitumor activity against rat C6 cells inoculated orthotopic Sprague-Dawley rat model assessed as tumor growth inhibition at 100 mg/kg, ip bid administered for 14 days by MRI scanner relative to control; type: functional; settings: 336 h, time 14 day, read-out: TGI
[5] = Tmax in Sprague-Dawley rat at 100 mg/kg, ip measured up to 24 hrs by LC-MS analysis; type: ADME, organism-based; settings: in vivo
U-87 MG [6] = experiment: Antiproliferative activity against human U-87 MG cells assessed as cell survival at <= 1.1 uM measured after 24 hrs by CCK-8 assay; type: functional, U-87MG ATCC; settings: dose microM <=1.1
U-251 [7] = experiment: Antiproliferative activity against human U-251 cells assessed as inhibition of cell growth measured after 72 hrs by CCK-8 assay; type: functional, cell-based; settings: U-251, 72 h
U-87 MG [8] = experiment: Inhibition of cell invasion in human U-87 MG cells incubated for 24 hrs by crystal violet staining based light microscopic analysis; type: functional; settings: U-87MG ATCC
[9] = target: T1, DNA topoisomerase 1 (Homo sapiens) (UniProt P11387); experiment: Inhibition of human topoisomerase I using DNA pBR322 as substrate assessed as DNA intercalation at 100 uM incubated for 30 mins by ethidium bromide staining based agarose gel electrophoresis method
T1 sequence (whole entry): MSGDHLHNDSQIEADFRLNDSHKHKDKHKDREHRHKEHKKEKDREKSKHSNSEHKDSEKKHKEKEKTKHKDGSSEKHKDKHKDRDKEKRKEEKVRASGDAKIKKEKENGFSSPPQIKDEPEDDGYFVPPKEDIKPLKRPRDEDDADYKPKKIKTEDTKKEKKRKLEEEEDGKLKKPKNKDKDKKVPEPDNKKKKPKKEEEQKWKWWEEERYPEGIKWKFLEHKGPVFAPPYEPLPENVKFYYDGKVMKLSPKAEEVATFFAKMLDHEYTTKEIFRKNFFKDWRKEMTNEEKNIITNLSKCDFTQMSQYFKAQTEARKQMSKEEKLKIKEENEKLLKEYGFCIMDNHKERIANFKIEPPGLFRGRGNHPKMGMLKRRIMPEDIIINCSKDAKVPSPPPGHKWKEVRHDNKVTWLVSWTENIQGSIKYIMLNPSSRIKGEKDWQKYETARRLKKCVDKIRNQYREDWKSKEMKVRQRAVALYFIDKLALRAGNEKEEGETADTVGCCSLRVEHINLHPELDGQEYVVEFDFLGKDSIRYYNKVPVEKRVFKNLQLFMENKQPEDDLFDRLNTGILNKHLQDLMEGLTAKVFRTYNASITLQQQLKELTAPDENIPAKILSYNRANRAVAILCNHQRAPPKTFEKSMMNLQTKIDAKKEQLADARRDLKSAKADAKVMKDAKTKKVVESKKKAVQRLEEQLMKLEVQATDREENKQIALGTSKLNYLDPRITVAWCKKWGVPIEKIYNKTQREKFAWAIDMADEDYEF

U-87 MG [10] = experiment: Induction of morphological changes in human U-87 MG cells assessed as appearance of shrunken cell bodies at 3.3 uM incubated for 72 hrs by Giemsa staining based light microscopic method; type: functional; settings: U-87MG ATCC
U-251 [11] = experiment: Inhibition of cell invasion in human U-251 cells incubated for 24 hrs by crystal violet staining based light microscopic analysis; type: functional
[12] = target: T2, Prostaglandin G/H synthase 2 (Rattus norvegicus) (UniProt P35355); experiment: In vivo inhibition of COX2 in ip dosed orthotopic Sprague-Dawley rat model inoculated with C6 cells assessed as reduction in PGE2 production by ELISA; type: functional, organism-based
T2 sequence (whole entry): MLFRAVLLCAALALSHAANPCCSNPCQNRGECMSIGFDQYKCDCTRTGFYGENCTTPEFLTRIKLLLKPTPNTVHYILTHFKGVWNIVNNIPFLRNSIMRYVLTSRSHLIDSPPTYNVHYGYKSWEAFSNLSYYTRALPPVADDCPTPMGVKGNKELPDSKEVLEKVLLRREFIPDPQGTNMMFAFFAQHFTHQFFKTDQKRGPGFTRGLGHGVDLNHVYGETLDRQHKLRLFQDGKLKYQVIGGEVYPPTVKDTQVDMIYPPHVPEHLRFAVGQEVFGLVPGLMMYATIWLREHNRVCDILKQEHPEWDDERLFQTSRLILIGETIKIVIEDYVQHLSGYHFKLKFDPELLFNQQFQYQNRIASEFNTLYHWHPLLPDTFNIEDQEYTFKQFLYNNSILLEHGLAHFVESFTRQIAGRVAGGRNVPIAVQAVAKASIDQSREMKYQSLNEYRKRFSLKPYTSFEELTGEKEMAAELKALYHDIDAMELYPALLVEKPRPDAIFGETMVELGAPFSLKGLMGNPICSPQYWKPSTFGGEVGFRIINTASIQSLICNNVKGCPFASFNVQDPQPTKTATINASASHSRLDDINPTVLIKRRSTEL

[13] = Acute toxicity in Kunming mouse assessed as death at 1000 mg/kg, ip administered as single dose observed every day for 14 days; type: organism-based; settings: in vivo, 336 h, time 14 day
U-251 [14] = experiment: Induction of morphological changes in human U-251 cells assessed as appearance of spindle cell shape at 3.3 uM incubated for 72 hrs by Giemsa staining based light microscopic method; type: functional
[15] = Acute toxicity in Kunming mouse assessed as death at 750 mg/kg, ip administered as single dose observed every day for 14 days; type: organism-based; settings: in vivo, 336 h, time 14 day
U-251 [16] = experiment: Induction of morphological changes in human U-251 cells assessed as membrane blebbing at 3.3 uM incubated for 72 hrs by Giemsa staining based light microscopic method; type: functional, cell-based
U-87 MG [17] = experiment: Induction of morphological changes in human U-87 MG cells assessed as appearance of rounded and shortened cells at 3.3 uM incubated for 72 hrs by Giemsa staining based light microscopic method; type: functional, cell-based; settings: U-87MG ATCC
U-251 [18] = experiment: Antiproliferative activity against human U-251 cells assessed as inhibition of cell growth measured up to 72 hrs by CCK-8 assay; type: functional, cell-based; settings: time hrs <=72
U-251 [19] = experiment: Induction of cell cycle arrest in human U-251 cells assessed as accumulation of cells at G2/M phase incubated for 72 hrs by propidium iodide/RNase A staining based flow cytometry analysis; type: functional
C6 [20] = experiment: Antitumor activity against rat C6 cells inoculated orthotopic Sprague-Dawley rat model assessed as reduction in tumor weight at 100 mg/kg, ip bid administered for 14 days by MRI scanner; type: functional, organism-based; settings: time 14.0 day
U-251 [21] = experiment: Inhibition of colony formation in human U-251 cells measured after 8 days by crystal violet staining based assay; type: functional, cell-based; settings: time 8.0 day
U-87 MG [22] = experiment: Induction of cell cycle arrest in human U-87 MG cells assessed as accumulation of cells at G2/M phase incubated for 72 hrs by propidium iodide/RNase A staining based flow cytometry analysis; type: functional; settings: U-87MG ATCC
C6 [23] = experiment: Antiproliferative activity against rat C6 cells assessed as inhibition of cell growth measured after 72 hrs by CCK-8 assay; type: functional, cell-based; settings: C6, 72 h

Row | Compound | Cmax [1] [ng/mL] | LD50 at 336 h [2] [mg/kg] | Activity (U-87 MG [3]) | inhibition in vivo at 100 mg/kg (C6 [4]) [%] | Tmax [5] [h] | Survival (U-87 MG [6]) [%] | IC50 (U-251 [7]) [µM] | inhibition (U-87 MG [8]) | inhibition [9] | Activity (U-87 MG [10]) | inhibition (U-251 [11]) | inhibition [12] | Activity [13] | Activity (U-251 [14]) | Activity [15] | Activity (U-251 [16]) | Activity (U-87 MG [17]) | Activity (U-251 [18]) | Activity (U-251 [19]) | Activity (C6 [20]) | also measured
1 | Cc1c(Cl)cccc1Nc1ccccc1C(=O)Nc1ccc2c(c1)OCO2 | 8870 | 750 | Active | 56.4 | 3.33 | >80 | 9.91 | Dose-Dependent Effect | Active | Active | Dose-Dependent Effect | Active | Toxic | Active | Non-Toxic | Active | Active | Dose-Dependent Effect | Dose-Dependent Effect | Active | inhibition (U-251 [21]): Dose-Dependent Effect; Activity (U-87 MG [22]): Dose-Dependent Effect; IC50 (C6 [23]): 16.9 µM
2 | COc1ccc(NC(=O)c2ccccc2Nc2cccc(Cl)c2C)cc1 | 8370 | 300 | Active | 66.7 | 3.33 | >80 | 5.36 | Dose-Dependent Effect | Active | Active | Dose-Dependent Effect | Active | Toxic | Active | Non-Toxic | Active | Active | Dose-Dependent Effect | Dose-Dependent Effect | Active | inhibition (U-251 [21]): Dose-Dependent Effect; Activity (U-87 MG [22]): Dose-Dependent Effect; IC50 (C6 [23]): 10.1 µM

Reference: ChEMBL document CHEMBL5032522, “N-2-(phenylamino) benzamide derivatives as novel anti-glioblastoma agents: Synthesis and biological evaluation” (Eur J Med Chem, 2021)
